Test results from ChEMBL document CHEMBL3593198 (Bioorg Med Chem, 2015).
The source made the active and inactive calls. The calls are words filed in the database; no cut-off is given here.

Key:
HeLa [1] = assay: Cytotoxicity against human HeLa cells after 48 hrs by MTT assay; assay type: functional, cell-based
[2] = Cytotoxicity against human WI-26 VA4 cells after 48 hrs by MTT assay; assay type: cell-based; settings: WI26VA4, 48 h
[3] = target: Sodium/potassium-transporting ATPase subunit alpha-2/alpha-3 (Rattus norvegicus, UniProt P06686+P06687); assay: Inhibition of Wistar rat brain Na(+)/K(+) ATPase alpha-2/3 assessed as amount of Pi release after 1 hr by colorimetric method
[4] = target: T1, Sodium/potassium-transporting ATPase subunit alpha-1 (Homo sapiens, UniProt P05023); assay: Inhibition of human kidney Na(+)/K(+) ATPase alpha-1 assessed as amount of Pi release after 1 hr by colorimetric method
[5] = Selectivity index, ratio of IC50 for human WI-26 VA4 cells to IC50 for human RKO-AS45-1 cells; assay type: functional
HeLa [6] = assay: Selectivity index, ratio of IC50 for human WI-26 VA4 cells to IC50 for human HeLa cells; assay type: functional
[7] = Cytotoxicity against human RKO-AS45-1 cells after 48 hrs by MTT assay; assay type: functional, cell-based; settings: RKOAS451, 48 h
[8] = target: T2, Sodium/potassium-transporting ATPase (Homo sapiens) (UniProt P05023+P14415+P05026+P50993+P54709+P13637+Q13733+P54710); assay: Inhibition of Na(+)/K(+) ATPase in human HeLa cells at 10 uM after 24 hrs by immunoblotting; assay type: cell-based
[9] = target: T2, Sodium/potassium-transporting ATPase (Homo sapiens); settings: HeLa, 150 nM
Description: Inhibition of Na(+)/K(+) ATPase in human HeLa cells at 150 nM after 24 hrs by immunoblotting

HeLa [10] = assay: Inhibition of Na(+)/K(+) ATPase alpha-1 expression in human HeLa cells at 150 nM after 24 hrs by immunoblotting; assay type: functional, cell-based
[11] = target: T1, Sodium/potassium-transporting ATPase subunit alpha-1; assay: Inhibition of human kidney Na(+)/K(+) ATPase alpha-1 assessed as amount of Pi release at 10 uM after 1 hr by colorimetric method
[12] = target: Sodium/potassium-transporting ATPase subunit alpha-2/alpha-3 (Rattus norvegicus) (UniProt P06686+P06687); assay: Inhibition of Wistar rat brain Na(+)/K(+) ATPase alpha-2/3 assessed as amount of Pi release at 10 uM after 1 hr by colorimetric method
HeLa [13] = assay: Inhibition of Na(+)/K(+) ATPase alpha-1 expression in human HeLa cells at 10 uM after 24 hrs by immunoblotting; assay type: functional, cell-based

| SMILES | IC50 (HeLa [1]) | IC50 [2] | IC50 [3] | IC50 [4] | Ratio IC50 [5] | Ratio IC50 (HeLa [6]) | IC50 [7] | inhibition [8] | inhibition [9] | inhibition (HeLa [10]) | inhibition [11] | inhibition [12] | inhibition (HeLa [13]) |
| --- | --- | --- | --- | --- | --- | --- | --- | --- | --- | --- | --- | --- | --- |
| COc1ccc(/C=C2\OC(=O)C=C2[C@H]2CC[C@]3(O)[C@@H]4CC[C@@H]5C[C@@H](O[C@H]6C[C@H](O)[C@H](O[C@H]7C[C@H](O)[C@H](O[C@H]8C[C@H](O)[C@H](O)[C@@H](C)O8)[C@@H](C)O7)[C@@H](C)O6)CC[C@]5(C)[C@H]4C[C@@H](O)[C@]23C)cc1 | 61.4 µM | 78.3 µM | 0.46 µM | 0.57 µM | 0.99 | 1.27 | 79 µM | inactive | – | – | – | – | – |
| C[C@H]1O[C@@H](O[C@H]2[C@@H](O)C[C@H](O[C@H]3[C@@H](O)C[C@H](O[C@H]4CC[C@@]5(C)[C@H](CC[C@@H]6[C@@H]5C[C@@H](O)[C@]5(C)[C@@H](C7=CC(=O)O/C7=C\c7cccc(Cl)c7Cl)CC[C@]65O)C4)O[C@@H]3C)O[C@@H]2C)C[C@H](O)[C@@H]1O | 42.5 µM | 15.5 µM | 18 µM | – | 0.81 | 0.36 | 19 µM | inactive | – | – | – | – | – |
| C[C@H]1O[C@@H](O[C@H]2[C@@H](O)C[C@H](O[C@H]3[C@@H](O)C[C@H](O[C@H]4CC[C@@]5(C)[C@H](CC[C@@H]6[C@@H]5C[C@@H](O)[C@]5(C)[C@@H](C7=CC(=O)OC7)CC[C@]65O)C4)O[C@@H]3C)O[C@@H]2C)C[C@H](O)[C@@H]1O [DIGOXIN] | – | – | – | – | – | – | 0.42 µM | – | Active | inactive | – | – | – |
| C[C@H]1O[C@@H](O[C@H]2[C@@H](O)C[C@H](O[C@H]3[C@@H](O)C[C@H](O[C@H]4CC[C@@]5(C)[C@H](CC[C@@H]6[C@@H]5C[C@@H](O)[C@]5(C)[C@@H](C7=CC(=O)O/C7=C\c7ccc(F)cc7)CC[C@]65O)C4)O[C@@H]3C)O[C@@H]2C)C[C@H](O)[C@@H]1O | 60.9 µM | 54.1 µM | 0.66 µM | 0.34 µM | 1.31 | 0.89 | 41.4 µM | inactive | – | – | – | – | – |
| C[C@H]1O[C@@H](O[C@H]2[C@@H](O)C[C@H](O[C@H]3[C@@H](O)C[C@H](O[C@H]4CC[C@@]5(C)[C@H](CC[C@@H]6[C@@H]5C[C@@H](O)[C@]5(C)[C@@H](C7=CC(=O)O/C7=C\c7ccc(Cl)cc7)CC[C@]65O)C4)O[C@@H]3C)O[C@@H]2C)C[C@H](O)[C@@H]1O | 40.1 µM | 28.7 µM | – | – | 1.21 | 0.72 | 23.8 µM | inactive | – | – | inactive | inactive | – |
| C[C@H]1O[C@@H](O[C@H]2[C@@H](O)C[C@H](O[C@H]3[C@@H](O)C[C@H](O[C@H]4CC[C@@]5(C)[C@H](CC[C@@H]6[C@@H]5C[C@@H](O)[C@]5(C)[C@@H](C7=CC(=O)O/C7=C\c7ccc(N(C)C)cc7)CC[C@]65O)C4)O[C@@H]3C)O[C@@H]2C)C[C@H](O)[C@@H]1O | 0.26 µM | 0.65 µM | 20 µM | 9.8 µM | 1.35 | 2.5 | 0.48 µM | Active | Active | inactive | – | – | inactive |
| C[C@H]1O[C@@H](O[C@H]2[C@@H](O)C[C@H](O[C@H]3[C@@H](O)C[C@H](O[C@H]4CC[C@@]5(C)[C@H](CC[C@@H]6[C@@H]5C[C@@H](O)[C@]5(C)[C@@H](C7=CC(=O)O/C7=C\c7cccc([N+](=O)[O-])c7)CC[C@]65O)C4)O[C@@H]3C)O[C@@H]2C)C[C@H](O)[C@@H]1O | 65.2 µM | 44.1 µM | 4 µM | 11 µM | 1.07 | 0.68 | 41.3 µM | inactive | – | – | – | – | – |
